# According to ChEMBL document CHEMBL1201862, “PubChem BioAssay data set” (2004):
#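 Method: 48-hour compound exposure of cells in 96-well plates, five concentrations, linear interpolation of endpoints. GI50 = concentration required for 50% inhibition of growth.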 The source made the active and inactive calls. Cut-off read from the data, not from the text of the source: active = GI50 up to about 1.1 µM and inactive = higher.
# Experiments:
# Experiment in all cases: NCI tumour cell line growth inhibition, 48 h
# [1] = tested on: OVCAR-8
# [2] = tested on: LOX IMVI
# [3] = tested on: HOP-92
# [4] = tested on: SK-MEL-28
# [5] = tested on: KM12
# [6] = tested on: U-251
# [7] = tested on: NCI-H460
# [8] = tested on: M14
# [9] = tested on: HOP-62
# [10] = tested on: HCT-15
# [11] = tested on: ACHN
# [12] = tested on: SK-MEL-2
# [13] = tested on: SK-OV-3
# [14] = tested on: COLO 205
# [15] = tested on: MDA-MB-435
# [16] = tested on: T47D
# [17] = tested on: NCI-H522
# [18] = tested on: PC-3
Structure (SMILES),GI50 [1],GI50 [2],GI50 [3],GI50 [4],GI50 [5],GI50 [6],GI50 [7],GI50 [8],GI50 [9],GI50 [10] [µM],GI50 [11],GI50 [12],GI50 [13],GI50 [14],GI50 [15],GI50 [16],GI50 [17],GI50 [18]
O=C1Cc2ccccc2N1/N=C\c1ccc(O)cc1,> 100 µM (inactive),> 100 µM (inactive),> 100 µM (inactive),> 100 µM (inactive),> 100 µM (inactive),> 100 µM (inactive),> 100 µM (inactive),> 100 µM (inactive),49.7 µM (inactive),91,53.7 µM (inactive),> 100 µM (inactive),> 100 µM (inactive),> 100 µM (inactive),,,,
C=C1[C@@H](OC(C)=O)[C@H]2[C@@H](OC(C)=O)[C@@](C)(OC(C)=O)C[C@]2(OC(C)=O)C(=O)[C@@H](C)/C=C/C(C)(C)C(=O)C[C@H]1OC(C)=O,> 100 µM (inactive),> 100 µM (inactive),79.3 µM (inactive),> 100 µM (inactive),> 100 µM (inactive),> 100 µM (inactive),,> 100 µM (inactive),> 100 µM (inactive),> 100,> 100 µM (inactive),> 100 µM (inactive),> 100 µM (inactive),72.3 µM (inactive),> 100 µM (inactive),> 100 µM (inactive),45.3 µM (inactive),> 100 µM (inactive)
CC(=O)OCC(=O)[C@@]1(O)CC[C@H]2[C@@H]3C[C@H](C)C4=CC(=O)C=C[C@]4(C)[C@@]3(F)[C@@H](O)C[C@@]21C,,> 100 µM (inactive),> 100 µM (inactive),> 100 µM (inactive),> 100 µM (inactive),60.4 µM (inactive),> 100 µM (inactive),> 100 µM (inactive),> 100 µM (inactive),> 100,> 100 µM (inactive),> 100 µM (inactive),0.0131 µM (active),> 100 µM (inactive),,,> 100 µM (inactive),
CCN(CC)CCOc1ccc(N2C(=O)c3cccc4cc([N+](=O)[O-])cc(c34)C2=O)cc1,10.9 µM (inactive),3.88 µM (inactive),20 µM (inactive),12.5 µM (inactive),12.5 µM (inactive),10.8 µM (inactive),0.524 µM (active),12.4 µM (inactive),1.14 µM (inactive),6.64,3.1 µM (inactive),16.3 µM (inactive),,10 µM (inactive),11.5 µM (inactive),19.7 µM (inactive),4.75 µM (inactive),6.73 µM (inactive)
COc1ccc(OC)c(N2CC(N)C2=O)c1 (configuration not stated),> 100 µM (inactive),> 100 µM (inactive),> 100 µM (inactive),> 100 µM (inactive),> 100 µM (inactive),> 100 µM (inactive),> 100 µM (inactive),> 100 µM (inactive),> 100 µM (inactive),> 100,> 100 µM (inactive),> 100 µM (inactive),> 100 µM (inactive),> 100 µM (inactive),,,> 100 µM (inactive),
COc1c(Br)cc(Br)c(OC)c1-c1[nH]c(Br)c(Br)c1Br,8.75 µM (inactive),11.7 µM (inactive),1.82 µM (inactive),6.65 µM (inactive),4.48 µM (inactive),10.4 µM (inactive),9.48 µM (inactive),7.16 µM (inactive),8.22 µM (inactive),4.28,4.78 µM (inactive),3.01 µM (inactive),13.6 µM (inactive),10.4 µM (inactive),,,2.18 µM (inactive),
O=C(O)CCCc1nc2c(n1-c1ccccc1)C(=O)c1ccccc1C2=O,53.5 µM (inactive),> 100 µM (inactive),49 µM (inactive),> 100 µM (inactive),31.3 µM (inactive),> 100 µM (inactive),> 100 µM (inactive),19.1 µM (inactive),,74.5,68.1 µM (inactive),97.9 µM (inactive),> 100 µM (inactive),52.5 µM (inactive),,> 100 µM (inactive),14.2 µM (inactive),
